Consider one compound from patent US5962487A, “Antipicornaviral compounds and methods for their use and preparation” (Agouron Pharmaceuticals, Inc., priority 1997, dated 1999).

pEC50: −log10 of the molar value.

Data set [1] deals with T1, Rhinovirus 3C protease (RVP) serotype 2 (Human rhinovirus 2, UniProt P04936).
T1 construct: Recombinant Rhinovirus 3C proteases from serotypes 14, 16, 2 or 89 were prepared; made in house
Put plainly: Inhibition of Rhinovirus Protease, serotype 2 (FRET assay). The following applies: enzyme start experiments, read-out: kobs/I. It is filed as biochemical.

A further data set deals with HRV-14. Put plainly: Antirhinoviral HI-HeLa Cell Culture Assay (cell protection, XTT), HRV-14. It is filed as cell-based, human rhinovirus. The method, boiled down:
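Read-out is XTT/PMS formazan at 450/650 nm, measured two days after compound exposure of HI-HeLa cells (8×10^5 cells/mL) infected at m.o.i. 0.13 or mock-infected. EC50: protection to 50% of compound-free mock-infected signal; CC50: 50% loss in mock-infected cells; TI is their ratio.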
A general note: Tetrazolium assays rely on reduction of a dye to a coloured formazan, in cell work by metabolically active cells.

A short description of data set [2]: in vitro. It is filed as cell-based. The following applies: human, hi-hela cells. The method, boiled down: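 HI-HeLa cells infected with HRV-14 at m.o.i. 0.13 or mock-infected, incubated with compounds for two days; XTT/PMS formazan read at 450/650 nm. EC50 as concentration restoring formazan to 50% of mock-infected level; CC50 from mock-infected cells; TI = CC50/EC50.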

A further data set concerns ECHO-11. As to the kind of experiment: Echovirus-11 MRC5 Cell Culture Assay. It is filed as cell-based, Echovirus strain 11. The protocol:
(§1) The Echovirus strain 11 (ECHO-11) and Enterovirus strain 70 (ENT-70) were purchased from American Type Culture Collection (ATCC). Virus stocks were propagated and antiviral assays were performed in MRC5 cells (ATCC). Cells were grown in Minimal Essential Medium with 10% fetal bovine serum.
(§2) The ability of compounds to protect cells against ECHO-11 or ENT-70 infection was measured by the XTT dye reduction method. Briefly, MRC5 cells were infected with ECHO-11 or ENT-70 at a multiplicity of infection (m.o.i.) of 0.0013 (ECHO-11) and 0.0017 (ENT-70) or mock-infected with medium only. Infected or uninfected cells were resuspended at 2×10^4 cells per mL and incubated with appropriate concentrations of drug. One day later, XTT/PMS was added to test plates, and the amount of formazan produced was quantified spectrophotometrically at 450/650 nm. The EC50 was calculated as the concentration of drug that increased the percentage of formazan production in drug-treated, virus-infected cells to 50% of that produced by drug-free, uninfected cells. The 50% cytotoxic dose (CC50) was calculated as the concentration of drug that decreased the percentage of formazan produced in drug-treated, uninfected cells to 50% of that produced in drug-free, uninfected cells. The therapeutic index (TI) was calculated by dividing the CC50 by the EC50.

The nature of data set [3]: in vitro. In kind it is cell-based. As to conditions: human, mrc5 cells. As to the method: as §1, §2
Another data set deals with MRC5 cells. As to the kind of experiment: in vitro. In kind it is cell-based. As to the method:
as §1, §2

T1 sequence (P04936 1508-1690): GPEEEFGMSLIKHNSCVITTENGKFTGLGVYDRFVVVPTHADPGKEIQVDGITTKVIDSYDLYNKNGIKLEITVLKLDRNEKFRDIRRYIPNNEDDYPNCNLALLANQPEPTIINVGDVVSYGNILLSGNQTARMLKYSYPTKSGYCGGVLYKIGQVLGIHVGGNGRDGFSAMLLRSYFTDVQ

Take `CCOC(=O)/C=C/[C@H](CCC(N)=O)NC(=O)[C@H](Cc1ccccc1)N(C)C(=O)[C@H](CC(C)C)NC(=O)OCc1ccccc1` [Compound 2, Ethyl-3-(CBZ-L-Leu-L-N-Me-Phe-L-Gln)-E-Propenoate]: the kinact/KI in data set [1] stood at 617 M⁻¹ s⁻¹. Further, the TI with HRV-14 (CC50/EC50, HRV serotype-14, 2880 min) was determined as 56; with ECHO-11 (CC50/EC50, ECHO-11, 1440 min), 18. In addition, the pEC50 is 6.00 in the data set on HRV-14 (Rhinovirus B, HRV14, 48 h, HRV serotype-14 infected HI-HeLa cells, XTT, two days) and 5.51 with ECHO-11 (Echovirus, 24 h, ECHO-11 infection of MRC5 cells, XTT, one day). This compound also came in with a CC50 at 48 h in the data set “in vitro [2]” of 56 µM. Moreover, in the data set “in vitro [3]”, the CC50 at 24 h was 56 µM. Moreover, in the data set with MRC5 cells, the half-maximal cytotoxic concentration (CC50) worked out at 56 µM.

As usually defined, the pEC50 is the EC50 on a negative log10 scale, so that one unit is a factor of ten. A higher pEC50 goes with a small EC50. For orientation: CC50 means the concentration that lowers cell viability or growth by half. Low readings indicate greater toxicity to the cells, high ones lower toxicity to the cells.
